Reference: the NIST ThermoML archive (doi:10.1007/s10765-013-1492-1)
“And” between values parts separate entries of the source, which are not always exact repeats. Equal entries are not always repeated. Numbers after ± are expanded uncertainties.

Tests used:
[1] = 101 kPa, Liquid
[2] = xn = mol fraction of the nth substance listed; conditions: 101 kPa, Liquid

O=Cc1ccccc1 [benzaldehyde]
[1]
Conditions	mass density	speed of sound	viscosity
303.15 K	1031.7 ± 4.8 kg/m3 and 1035.7 ± 4.8 kg/m3	1452 ± 16 m/s	1.32 ± 0.082 mPa·s
308.15 K	1031.3 ± 4.9 kg/m3	1428 ± 16 m/s and 1428.8 ± 16 m/s	1.249 ± 0.078 mPa·s and 1.249 ± 0.059 mPa·s
313.15 K	1028 ± 4.9 kg/m3	1413 ± 15 m/s	1.242 ± 0.078 mPa·s and 1.241 ± 0.059 mPa·s

O=Cc1ccccc1 [benzaldehyde] + Clc1ccccc1
[2]
Conditions	mass density, 303.15 K [kg/m3]	mass density, 308.15 K [kg/m3]	mass density, 313.15 K [kg/m3]	speed of sound, 303.15 K [m/s]	speed of sound, 308.15 K [m/s]	speed of sound, 313.15 K [m/s]	viscosity, 303.15 K [mPa·s]	viscosity, 308.15 K [mPa·s]	viscosity, 313.15 K [mPa·s]
x1 = 0.1006	1084.3 ± 5	1082 ± 5.1	1077.9 ± 5.1	1265 ± 14	1241 ± 14	1235 ± 14	0.7984 ± 0.053	0.7805 ± 0.052	0.7641 ± 0.051
x1 = 0.2011	1081.4 ± 5	1079.1 ± 5	1075 ± 5.1	1282 ± 14	1258 ± 14	1249 ± 14	0.8332 ± 0.055	0.8123 ± 0.054	0.7949 ± 0.053
x1 = 0.3015	1077.2 ± 4.9	1075 ± 5	1070.2 ± 5.1	1299 ± 15	1277 ± 14	1267 ± 14	0.8814 ± 0.058	0.8532 ± 0.056	0.8407 ± 0.056
x1 = 0.4017	1071.9 ± 4.9	1070.3 ± 5	1065.2 ± 5.1	1318 ± 15	1296 ± 15	1286 ± 14	0.9297 ± 0.06	0.905 ± 0.059	0.8891 ± 0.058
x1 = 0.5017	1066.5 ± 4.9	1065.2 ± 5	1059.9 ± 5.1	1337 ± 15	1316 ± 15	1305 ± 15	0.9803 ± 0.063	0.9559 ± 0.062	0.9425 ± 0.061
x1 = 0.6017	1060.9 ± 4.9	1059.8 ± 5	1054.6 ± 5.1	1356 ± 15	1337 ± 15	1325 ± 15	1.029 ± 0.066	1.009 ± 0.065	0.9925 ± 0.064
x1 = 0.7015	1055 ± 4.8	1053.8 ± 4.9	1049.1 ± 5	1376 ± 15	1358 ± 15	1345 ± 15	1.082 ± 0.069	1.061 ± 0.068	1.045 ± 0.067
x1 = 0.8011	1048.5 ± 4.8	1047.5 ± 4.9	1043.3 ± 5	1397 ± 15	1380 ± 15	1366 ± 15	1.134 ± 0.072	1.118 ± 0.071	1.099 ± 0.07
x1 = 0.9006	1041.6 ± 4.8	1040.8 ± 4.9	1036.9 ± 5	1418 ± 15	1403 ± 15	1387 ± 15	1.196 ± 0.076	1.184 ± 0.075	1.163 ± 0.074
x1 = 1	1031.7 ± 4.8	1031.3 ± 4.9	1028 ± 4.9	1452 ± 16	1428 ± 16	1413 ± 15	1.32 ± 0.082	1.249 ± 0.078	1.242 ± 0.078

O=Cc1ccccc1 [benzaldehyde] + O=[N+]([O-])c1ccccc1
[2]
Conditions	mass density, 303.15 K [kg/m3]	mass density, 308.15 K [kg/m3]	mass density, 313.15 K [kg/m3]	speed of sound, 303.15 K [m/s]	speed of sound, 308.15 K [m/s]	speed of sound, 313.15 K [m/s]	viscosity, 303.15 K [mPa·s]	viscosity, 308.15 K [mPa·s]	viscosity, 313.15 K [mPa·s]
x1 = 0.1018	1170.8 ± 5.3	1170.6 ± 5.4	1166.6 ± 5.5	1409.5 ± 15	1366.2 ± 15	1332.4 ± 15	1.556 ± 0.072	1.546 ± 0.072	1.524 ± 0.071
x1 = 0.2032	1160.2 ± 5.3	1159.9 ± 5.4	1150.6 ± 5.4	1412 ± 15	1372 ± 15	1340 ± 15	1.534 ± 0.072	1.504 ± 0.07	1.472 ± 0.069
x1 = 0.3043	1143 ± 5.2	1142.6 ± 5.3	1142.4 ± 5.4	1414.6 ± 15	1378 ± 15	1348 ± 15	1.495 ± 0.07	1.456 ± 0.068	1.45 ± 0.068
x1 = 0.4049	1130.6 ± 5.2	1129.8 ± 5.3	1121.9 ± 5.3	1417.5 ± 16	1384 ± 15	1356.2 ± 15	1.455 ± 0.068	1.429 ± 0.067	1.402 ± 0.066
x1 = 0.5051	1117.6 ± 5.1	1117 ± 5.2	1110.9 ± 5.3	1420.6 ± 16	1390.6 ± 15	1364.8 ± 15	1.427 ± 0.067	1.411 ± 0.066	1.383 ± 0.065
x1 = 0.6049	1102.6 ± 5	1101.8 ± 5.1	1101.1 ± 5.2	1424.5 ± 16	1397.8 ± 15	1374 ± 15	1.405 ± 0.066	1.389 ± 0.065	1.371 ± 0.065
x1 = 0.7042	1083.9 ± 5	1082.7 ± 5.1	1080.7 ± 5.2	1428.3 ± 16	1405 ± 15	1383 ± 15	1.359 ± 0.064	1.354 ± 0.064	1.343 ± 0.063
x1 = 0.8032	1065.2 ± 4.9	1065 ± 5	1064.5 ± 5.1	1432.5 ± 16	1412.5 ± 15	1392.3 ± 15	1.333 ± 0.063	1.316 ± 0.062	1.307 ± 0.062
x1 = 0.9018	1050.9 ± 4.8	1048.8 ± 4.9	1043.8 ± 5	1437 ± 16	1420 ± 15	1401.7 ± 15	1.295 ± 0.061	1.282 ± 0.061	1.267 ± 0.06
x1 = 1	1035.7 ± 4.8	1031.3 ± 4.9	1028 ± 4.9	1452 ± 16	1428.8 ± 16	1413 ± 15	1.32 ± 0.062	1.249 ± 0.059	1.241 ± 0.059

Clc1ccccc1 [chlorobenzene]
[1]
Conditions	mass density [kg/m3]	speed of sound [m/s]	viscosity [mPa·s]
303.15 K	1086.6 ± 5	1249 ± 14	0.7147 ± 0.048
308.15 K	1085.1 ± 5.1	1224 ± 14	0.7469 ± 0.05
313.15 K	1081.1 ± 5.2	1220 ± 14	0.7383 ± 0.05

Clc1ccccc1 [chlorobenzene] + O=Cc1ccccc1
[2], x2 = 0
Conditions	mass density [kg/m3]	speed of sound [m/s]	viscosity [mPa·s]
303.15 K	1086.6 ± 5	1249 ± 14	0.7147 ± 0.048
308.15 K	1085.1 ± 5.1	1224 ± 14	0.7469 ± 0.05
313.15 K	1081.1 ± 5.2	1220 ± 14	0.7383 ± 0.05

O=[N+]([O-])c1ccccc1 [nitrobenzene]
[1]
Conditions	mass density [kg/m3]	speed of sound [m/s]	viscosity [mPa·s]
303.15 K	1189.6 ± 5.4	1407 ± 15	1.618 ± 0.075
308.15 K	1189.4 ± 5.5	1361 ± 15	1.618 ± 0.075
313.15 K	1187.2 ± 5.6	1326 ± 15	1.61 ± 0.075

O=[N+]([O-])c1ccccc1 [nitrobenzene] + O=Cc1ccccc1
[2], x2 = 0
Conditions	mass density [kg/m3]	speed of sound [m/s]	viscosity [mPa·s]
303.15 K	1189.6 ± 5.4	1407 ± 15	1.618 ± 0.075
308.15 K	1189.4 ± 5.5	1361 ± 15	1.618 ± 0.075
313.15 K	1187.2 ± 5.6	1326 ± 15	1.61 ± 0.075
